This note sets out measurements from US20240376142A1, “A-SALIDROSIDE, METHOD FOR PREPARING SAME, AND APPLICATION THEREOF” (SHANDONG HENGLU BIOTECH. CO., LTD., priority 2021, published 2024).

Test [1] in a line: Hydroxyl radical scavenging experiment (Fenton reaction, 1,10-phenanthroline spectrophotometry). Format: biochemical. Conditions: for Hydroxyl Radical Scavenging Rate: 37° C., 30 minutes, 536 nm. The source says:
The Hydroxyl Radical Scavenging Activity is an important indicator for measuring the antioxidant capacity of substances. Currently, the main analytical testing methods for hydroxyl radicals include High Performance Liquid Chromatography, Chemiluminescence, Fluorescence Analysis, and Spectrophotometry, etc. Among them, the most commonly used method for measuring the hydroxyl radical scavenging activity is Spectrophotometry, which can be used to determine the inhibition of the absorbance decline of the colorant 1,10-Phenanthroline by the sample, thereby reflecting the ability of the sample to scavenge hydroxyl radicals. The measurement principle is as follows: H2O2/Fe^2+ produces hydroxyl radicals through the Fenton reaction, oxidizing Fe^2+ in the 1,10-Phenanthroline-Fe^2+ aqueous solution to Fe^3+, leading to a decline in the absorbance at 536 nm. The degree to which the sample inhibits the rate of absorbance decline at 536 nm reflects the ability of the sample to scavenge hydroxyl radicals.
• (1) FeSO4 Solution: 1.5 mM and 5 mM FeSO4 aqueous solutions were prepared using conventional methods. • (2) PBS Buffer: • 1) 0.2 mol/L sodium dihydrogen phosphate and 0.2 mol/L disodium hydrogen phosphate aqueous solutions were prepared. • 2) 19 mL of sodium dihydrogen phosphate aqueous solution and 81 mL of disodium hydrogen phosphate aqueous solution were taken, mixed well, and the pH was adjusted to 7.4 (measured with a pH meter, and the pH value was adjusted with 0.1 mol/L sodium hydroxide or 0.1 mol/L phosphoric acid if necessary). • (3) 1,10-Phenanthroline: 0.75 mM and 3 mM aqueous solutions were prepared using conventional methods. • (4) Hydrogen Peroxide (H2O2) Solution: 0.1% (v/v) aqueous solution was prepared using conventional methods. • (5) α-salidroside Solution: 1 mg/mL and 4 mg/mL aqueous solutions were prepared using conventional methods. • (6) β-salidroside Solution: 1 mg/mL and 4 mg/mL aqueous solutions were prepared using conventional methods.
Scheme 1: Using 5 mM FeSO4 aqueous solution, 0.1% hydrogen peroxide, 1 mg/mL α-salidroside aqueous solution or 1 mg/mL β-salidroside aqueous solution, and 3 mM 1,10-Phenanthroline aqueous solution, the following operation steps were carried out for the reaction.
Scheme 2: Using 1.5 mM FeSO4 aqueous solution, 0.1% hydrogen peroxide, 4 mg/mL α-salidroside aqueous solution or 4 mg/mL β-salidroside aqueous solution, and 0.75 mM 1,10-Phenanthroline aqueous solution, the following operation steps were carried out for the reaction.
Specific Operation Steps: (1) 40 μL of α-salidroside solution or β-salidroside solution was taken separately, to which 40 μL of FeSO4 solution, 60 μL of PBS buffer solution (pH 7.4), and 40 μL of 1,10-Phenanthroline solution were added respectively, mixed well. Then, 40 μL of H2O2 solution was added and mixed well again. […] Using distilled water as blank, the absorbance at 536 nm wavelength was measured and the average of three parallels was calculated and noted as Ai.
(2) 80 μL of distilled water was taken, to which 40 μL of FeSO4 solution, 60 μL of PBS buffer solution (pH 7.4), and 40 μL of 1,10-Phenanthroline solution were added and mixed well. […] Using distilled water as blank, the absorbance at 536 nm wavelength was measured and the average of three parallels was calculated and noted as Aj. […] Using distilled water as blank, the absorbance at 536 nm wavelength was measured and the average of three parallels was calculated and noted as A0.

Test [2] can be described thus: DPPH radical scavenging experiment. Format: biochemical. The note with it: for DPPH Radical Scavenging Rate: 500 mg/L aqueous sample solution mixed 1:1 with 0.04 mg/ml DPPH ethanol solution, dark, 517 nm. The source says:
Free radicals play a significant role, either directly or indirectly, in oxidative processes and are widely involved in the physiological and pathological processes of the body. When the body has an excess of free radicals, the body damage can be caused by free radicals through oxidative actions. Phenolic compounds, being donors of phenolic hydroxyl groups, form the structural basis for antioxidant activity. This experiment employs the DPPH [1,1-Diphenyl-2-trinitrophenyl hydrazine, also known as 1,1-Diphenyl-2-picrylhydrazyl, (free radical)] radical scavenging reaction to study the scavenging efficiency of α-salidroside and β-salidroside on DPPH radicals. • (1) α-salidroside solution: prepared as a 500 mg/L aqueous solution using conventional methods. • (2) β-salidroside solution: prepared as a 500 mg/L aqueous solution using conventional methods. • (3) DPPH ethanol solution: prepared as a 0.04 mg/ml solution in anhydrous ethanol using conventional methods. • (1) 0.9 mL each of α-salidroside solution and β-salidroside aqueous solution were taken separately, and 0.9 mL of DPPH anhydrous ethanol solution was added to each, mixed well, and then left to stand in the dark. Samples were taken at 0.5 h, 1 h, 2 h, and 4 h respectively, and the absorbance was measured at a wavelength of 517 nm. The average of three parallels was calculated and noted as Ai. • (2) 0.9 mL each of α-salidroside solution and β-salidroside aqueous solution were taken separately, and 0.9 mL of anhydrous ethanol was added to each, mixed well, and then left to stand in the dark […]. Samples were taken at 0.5 h, 1 h, 2 h, and 4 h respectively, and the absorbance was measured at a wavelength of 517 nm. The average of three parallels was calculated and noted as Aj. • (3) 0.9 mL of distilled water was taken, to which 0.9 mL of DPPH ethanol solution was added, mixed well, and the absorbance was measured at a wavelength of 517 nm. The average of three parallels was calculated and noted as A4. • (4) 0.9 mL of anhydrous ethanol was taken, to which 0.9 mL of distilled water was added, mixed well, and was used as a blank. The DPPH radical scavenging rate was calculated according to the formula below, and the results were recorded in Table 3. [formula]
Background: DPPH is a stable violet radical that fades when it is reduced.

Setting [3] is: Scheme 1: 1 mg/mL sample solution, 5 mM FeSO4, 0.1% hydrogen peroxide, 3 mM 1,10-Phenanthroline.
Where [4] appears, read: Scheme 2: 4 mg/mL sample solution, 1.5 mM FeSO4, 0.1% hydrogen peroxide, 0.75 mM 1,10-Phenanthroline.

As for `OC[C@H]1O[C@@H](OCCc2ccc(O)cc2)[C@H](O)[C@@H](O)[C@@H]1O` [β-salidroside, reference compound], the results for the “Hydroxyl Radical Scavenging Rate” value in test [1] (setting [3]) and in test [1] (setting [4]) were 13.92% and 4.05%, respectively. Further, the “DPPH Radical Scavenging Rate” value in test [2] (0.5 h) is on record as 19.96%; in test [2] (1 h), 23.21%; in test [2] (2 h), 28.24%; in test [2] (4 h), 28.33%.
As for `OC[C@H]1O[C@H](OCCc2ccc(O)cc2)[C@H](O)[C@@H](O)[C@@H]1O` [α-salidroside, 2-(4-hydroxyphenyl) ethyl-α-D-glucopyranoside], the entries for the “Hydroxyl Radical Scavenging Rate” value in test [1] (setting [3]) and in test [1] (setting [4]) were 28.69% and 21.62%, respectively. In test [1] (in words, from Table 4, both schemes), the “capability in scavenging hydroxyl radicals compared to β-salidroside” value is listed as “far superior to that of β-salidroside”. The “DPPH Radical Scavenging Rate” value in test [2] (0.5 h) was found to be 19.29%; in test [2] (1 h), 28.45%; in test [2] (2 h), 31.00%; in test [2] (4 h), 34.12%. The “capability of scavenging DPPH radicals compared to β-salidroside” value in test [2] (in words, from Table 3, especially when the reaction time is over 1 hour) was “higher capability of scavenging DPPH radicals compared to β-salidroside”.
